Test results published in US20240009211A1, “PHARMACEUTICAL COMPOSITION FOR TREATMENT OF LUNG CANCER COMPRISING CANNABIDIOL AND ANTICANCER AGENT AS ACTIVE INGREDIENTS, AND USE THEREOF” (NEOCANNBIO CO., LTD., priority 2022, published 2024).

Tests used:
[1] = test system: A549 cells; assay: Cancer cell toxicity of CBD, WST-8 cell survival; format: cell-based; details: Homo sapiens, A549, 48 h
Method: Specifically, A549 cells, a lung cancer cell line, were seeded in 96-well plates at a concentration of 1×10^4 cells/well, cultured in a 37° C., 10% CO2 incubator for 24 hours, then treated with CBD in a concentration-dependent manner and cultured under the same conditions for 48 hours. After completion of culture, 1/10 of WST-8 solution (Quanti-Max™, BIOMAX, Korea) was added to the medium, and after additional culture at 37° C. for 1 hour, the cell survival rate was determined by measuring absorbance at 450 nm, and expressed as a percentage of the control without any treatment. The experiment was conducted independently and repeated three times.

[2] = test system: A549 cells; assay: Anti-cancer agents with or without CBD, WST-8 cell survival; format: cell-based; details: A549, 48 h
Method: After completion of culture, 1/10 of WST-8 solution (Quanti-Max™, BIOMAX, Korea) was added to the medium, and after additional culture at 37° C. for 1 hour, the cell survival rate was determined by measuring absorbance at 450 nm, and expressed as a percentage of the control without any treatment. The experiment was conducted independently and repeated three times.

[3] = test system: A549 cells; assay: Apoptosis by Fluorescence Activated Cell Sorting (FACS); format: cell-based; details: A549, combined treatment of etoposide and CBD compared to individual treatment
Excerpt: In addition, the apoptosis results of the combination treatment were re-validated using a Fluorescence Activated Cell Sorting (FACS) system.

[4] = test system: A549 cells; assay: Western blotting of apoptosis- and autophagy-related proteins after combined treatment; format: cell-based; details: A549, 24 h, etoposide combined with CBD (15 μM)
Method: After completion of culture, the cells were harvested and the proteins were quantified using the bradford assay (Bio-Rad, japan), and the proteins (30 ug/well) were separated by electrophoresis on NuPAGE 4-12% Bis-Tris gels (Invitrogen) and transferred to polyvinylidene difluoride (PVDF). Next, the PVDF membrane was reacted with a primary antibody (Monoclonal antibody, Cell signaling technology, USA) specific for PARP[Poly (ADP-ribose) polymerase], cleaved caspase9, cleaved caspase8, LC3B or GAPDH for 1 hour at room temperature, followed by reacting with an anti-rabbit secondary antibody (Cell signaling technology) for 1 hour. The antibodies bound to PVDF were visualized using ECL Advance Western Blotting Detection Reagents (GE Healthcare, UK) and LAS 4000 imaging system (Fujifilm, Japan).

[5] = test system: A549 cells; assay: cells; details: Homo sapiens, A549, 48 h
[6] = Homo sapiens, read-out: IC50 (μM), with CBD (15 μM)
[7] = Homo sapiens, read-out: IC50 (μM), without CBD
[8] = etoposide concentration-dependent

| SMILES | IC50 [2, 6] [µM] | IC50 [2, 7] [µM] | other results |
| --- | --- | --- | --- |
| C=C(C)[C@@H]1CCC(C)=C[C@H]1c1c(O)cc(CCCCC)cc1O [CBD, 2-[(1R,6R)-3-methyl-6-prop-1-en-2-ylcyclohex-2-en-1-yl]-5-pentylbenzene-1,3-diol] | – | – | IC50 [1]: 18.6 µM |
| COc1cc2nccc(Oc3ccc(NC(=O)C4(C(=O)Nc5ccc(F)cc5)CC4)cc3)c2cc1OC [Cabozantinib (XL184), Cabozantinib] | 4.14 | 8.29 | – |
| N.N.O=C([O-])C1(C(=O)[O-])CCC1.[Pt+2] [Carboplatin] | – | – | IC50 ([2]; read-out: IC50 (μM), 48 h, with CBD, with CBD (15 μM)): > 100 µM |
| COc1cc([C@@H]2c3cc4c(cc3[C@@H](O[C@@H]3O[C@@H]5CO[C@@H](C)O[C@H]5[C@H](O)[C@H]3O)[C@H]3COC(=O)[C@H]23)OCO4)cc(OC)c1O [Etoposide (VP-16), etoposide] | 51.4 | – | number of early apoptotic cells [3]: significantly increased; expression of Bcl-2 protein [4]: decreased; expression of autophagy-related protein LC3-II [4]: increased; expression of Bax protein [4, 8]: increased; expression of cleaved PARP protein [4, 8]: increased; expression of cleaved caspase8 protein [4, 8]: increased; expression of cleaved caspase9 protein [4, 8]: increased; IC50 ([5]; read-out: cytotoxicity (IC50) of etoposide alone): 106 µM; IC50 ([5]; read-out: cytotoxicity (IC50) of etoposide upon combined treatment with CBD): 51.4 µM |
| COc1cc2nccc(Oc3ccc(NC(=O)NC4CC4)c(Cl)c3)c2cc1C(N)=O [Lenvatinib] | 16.9 | 19.9 | – |
| CNC(=O)c1cc(Oc2ccc(NC(=O)Nc3ccc(Cl)c(C(F)(F)F)c3)c(F)c2)ccn1 [Regorafenib] | 4.11 | 5.27 | – |
| CNC(=O)c1cc(Oc2ccc(NC(=O)Nc3ccc(Cl)c(C(F)(F)F)c3)cc2)ccn1 [Sorafenib] | 4.26 | 8.97 | – |
| CCC1=C[C@@H]2CN(C1)Cc1c([nH]c3ccccc13)[C@@](C(=O)OC)(c1cc3c(cc1OC)N(C)[C@H]1[C@@](O)(C(=O)OC)[C@H](OC(C)=O)[C@]4(CC)C=CCN5CC[C@]31[C@@H]54)C2 [Vinorelbine] | 6.38 | 12.4 | – |
